Reference: article PMC2923189, “An Oligopeptide Transporter of Mycobacterium tuberculosis Regulates Cytokine Release and Apoptosis of Infected Macrophages” (PLoS ONE, 2010)

Tests used:
OppAMTB = biological target: T1, OppAMTB (Mycobacterium tuberculosis, UniProt P9WGU5)
T1 construct: gene oppA

[1] = biological target: OppA of M. tuberculosis (OppAMTB), substrate-binding polypeptide of the Rv1280c-Rv1283c peptide transporter, recombinant wild type (Mycobacterium tuberculosis) (UniProt P9WGU5); experiment: radioligand binding
Sequence of OppA of M. tuberculosis (OppAMTB), substrate-binding polypeptide of the Rv1280c-Rv1283c peptide transporter, recombinant wild type (Mycobacterium tuberculosis) (P9WGU5 57-591): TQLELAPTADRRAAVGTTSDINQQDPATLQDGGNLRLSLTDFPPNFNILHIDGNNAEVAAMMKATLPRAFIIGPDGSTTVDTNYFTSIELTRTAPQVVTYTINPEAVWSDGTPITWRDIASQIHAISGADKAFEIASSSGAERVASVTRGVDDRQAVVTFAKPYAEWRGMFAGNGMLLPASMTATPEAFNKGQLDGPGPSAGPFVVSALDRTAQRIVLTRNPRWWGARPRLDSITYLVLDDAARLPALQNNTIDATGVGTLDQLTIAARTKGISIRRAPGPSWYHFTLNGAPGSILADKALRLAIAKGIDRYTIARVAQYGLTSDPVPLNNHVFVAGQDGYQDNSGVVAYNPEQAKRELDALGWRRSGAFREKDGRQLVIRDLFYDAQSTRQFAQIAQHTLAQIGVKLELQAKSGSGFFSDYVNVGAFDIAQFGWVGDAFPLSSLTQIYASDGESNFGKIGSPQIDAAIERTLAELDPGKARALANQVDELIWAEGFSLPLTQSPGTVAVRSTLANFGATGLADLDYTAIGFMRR

T1 sequence (P9WGU5 57-591): as above

Row | Compound | % GSH binding with 1 mM competitor (OppAMTB) | amount bound at 1 mM GSH (pmol GSH/mg protein) [1]
1 | N[C@@H](CCC(=O)N[C@@H](CS)C(=O)O)C(=O)O [glu-cys] | dipeptide glu-cys was a more efficient competitor of GSH binding than the peptide cys-gly | 
2 | N[C@@H](CS)C(=O)NCC(=O)O [cys-gly] | dipeptide glu-cys was a more efficient competitor of GSH binding than the peptide cys-gly | 
3 | glutathione (tripeptide) |  | 146
